Laboratory results taken from patent publication US20040077031A1, “Novel methionine aminopeptidase-2 and uses thereof” (priority 2002, published 2004).
Read-outs that look alike come from different tables or passages of the source. One block for each compound: values may come before it.

Assays:
[1] = target: T1, MetAP2 (Homo sapiens, UniProt P50579); assay: Kinetic constants of MetAP2 with Mn2+ on peptide substrates (chromogenic assay); type: biochemical; conditions: MetAP2 with 100 μM Mn2+
T1 construct: gp67 secretion signal of vector pAcGP67B (N); made in house; host or cells: baculovirus-infected Sf9 insect cells, secreted into medium
T1 sequence (P50579 whole entry): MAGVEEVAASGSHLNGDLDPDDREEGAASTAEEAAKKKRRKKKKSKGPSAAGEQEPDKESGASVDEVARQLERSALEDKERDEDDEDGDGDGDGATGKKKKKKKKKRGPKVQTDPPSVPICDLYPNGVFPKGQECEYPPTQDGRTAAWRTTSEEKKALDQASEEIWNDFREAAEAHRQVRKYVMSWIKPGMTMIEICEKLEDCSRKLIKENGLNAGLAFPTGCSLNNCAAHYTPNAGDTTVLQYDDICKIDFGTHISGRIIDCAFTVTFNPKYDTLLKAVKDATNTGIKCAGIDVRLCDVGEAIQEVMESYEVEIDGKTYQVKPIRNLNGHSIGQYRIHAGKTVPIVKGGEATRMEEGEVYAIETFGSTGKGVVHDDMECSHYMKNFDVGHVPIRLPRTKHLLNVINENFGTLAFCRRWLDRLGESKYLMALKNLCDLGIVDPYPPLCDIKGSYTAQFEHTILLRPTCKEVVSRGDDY
From the text: A coupled-enzyme chromogenic assay was used to measure methionine aminopeptidase activity by monitoring the production of free methionine cleaved from specific peptide substrates containing methionine. […] Other peptides can be used including dimeric, tetrameric, pentameric, hexameric, heptameric, nonameric, decameric, and undecameric peptides. […] Free methionine was oxidized with L-amino acid oxidase (AAO, Sigma Catalog No. A-9378) and horseradish peroxidase (HRP, Sigma Catalog No. P-8451). Oxidation by AAO of free methionine generates hydrogen peroxide (H2O2) which then reacts with HRP oxidizing 0-dianisidine (Sigma Catalog No. D-1954) or 10-acetyl-3,7-dihydrophenoxazine (Amplex Red, Molecular Probes). Assays were performed in 96-well microtiter plates. Enzyme preparations were diluted in assay buffer (50 mM HEPES, pH 7.4, 100 mM NaCl), and 10 μl of the enzymes were introduced into each well. […] The reactions were carried out at room temperature, and the absorbance at 450 nanometer (A450) was measured every 20 seconds over a period of twenty minutes using an automatic plate reader (Molecular Devices, Calif., USA). The rate in mOD/min, calculated for each well, was used to represent MetAP1 or MetAP2 activity. Under this assay condition, the methionine cleaved from peptide substrate by MetAP1 or MetAP2 was instantaneously oxidized to generate a final A450 readout.

[2] = target: T1, MetAP2; assay: Metal dependence and baseline activity of MetAP2, chromogenic assay; type: biochemical
From the text: (§1) A coupled-enzyme chromogenic assay was used to measure methionine aminopeptidase activity by monitoring the production of free methionine cleaved from specific peptide substrates containing methionine. […] Other peptides can be used including dimeric, tetrameric, pentameric, hexameric, heptameric, nonameric, decameric, and undecameric peptides. […] Free methionine was oxidized with L-amino acid oxidase (AAO, Sigma Catalog No. A-9378) and horseradish peroxidase (HRP, Sigma Catalog No. P-8451). Oxidation by AAO of free methionine generates hydrogen peroxide (H2O2) which then reacts with HRP oxidizing 0-dianisidine (Sigma Catalog No. D-1954) or 10-acetyl-3,7-dihydrophenoxazine (Amplex Red, Molecular Probes). Assays were performed in 96-well microtiter plates. Enzyme preparations were diluted in assay buffer (50 mM HEPES, pH 7.4, 100 mM NaCl), and 10 μl of the enzymes were introduced into each well. A mixture (90 μl) of 0.1 mg/ml L-amino acid oxidase, 0.1 mg/ml of horseradish peroxidase, 0.1 mg/ml ortho-dianisidine, and 0.5 mM peptide substrate was added to each cell. The reactions were carried out at room temperature, and the absorbance at 450 nanometer (A450) was measured every 20 seconds over a period of twenty minutes using an automatic plate reader (Molecular Devices, Calif., USA). The rate in mOD/min, calculated for each well, was used to represent MetAP1 or MetAP2 activity. Under this assay condition, the methionine cleaved from peptide substrate by MetAP1 or MetAP2 was instantaneously oxidized to generate a final A450 readout.
Both MetAP1 and MetAP2 need the presence of a metal in the active site for optimal activity, and have previously been classified as Co^2+, metalloproteases (Arfin et al, 1995; Li and Chang, 1996). […]

[3] = target: T2, MetAP1 (Homo sapiens, UniProt P53582); assay: Metal dependence and baseline activity of MetAP1, chromogenic assay; type: biochemical
T2 construct: histidine tag (N); gp67 secretion signal of vector pAcGP67B (N); made in house; host or cells: baculovirus-infected Sf9 insect cells, secreted into medium
From the text: as §1
Both MetAP1 and MetAP2 need the presence of a metal in the active site for optimal activity, and have previously been classified as Co^2+, metalloproteases (Arfin et al, 1995; Li and Chang, 1996). […] Calcium chloride (Ca^2+), cobalt chloride (Co^2+), cupric chloride (Cu^2+), ferrous chloride (Fe^2+), magnesium chloride (Mg^2+), manganese chloride (Mn^2+), nickel chloride (Ni^2+), or zinc chloride (Zn^2+) was included in each assay at final concentrations of 0, 0.1, 1, 10, 100, 1000, and 10,000 μM in the assay buffer (50 mM HEPES, pH 7.4, 100 mM NaCl).

[4] = tested on: HMVEC cells; assay: Penetration and accumulation into HMVEC cells; type: in vitro ADME, human
[5] = target: T1, MetAP2; assay: MetAP2 enzyme inhibition, coupled-enzyme chromogenic assay; type: biochemical
From the text: as §1
(§2) The cellular activity of A-357300 was tested in HMVEC grown in complete EGM2 medium enriched with a combination of growth factors (vascular endothelial growth factor (VEGF), basic fibroblast growth factor (bFGF), epidermal growth factor (EGF), and insulin-like growth factor (IGF)) and fetal bovine serum. […] To determine that the cellular effect of A-357300 was through inhibition of cellular MetAp2, HMVEC were incubated with the MetAP2 inhibitors fumagillin and A-357300 for 4 hours before ^35S-methionine was added to the culture. After another 2-hour incubation, cellular proteins were collected and applied to a reactive dye-agarose column as described in Example 6. MetAP2 specific substrates (GAPDH and other cellular proteins with a N-terminal cleavable initiator methionine) were captured on the agarose column.

[6] = target: T3, cellular MetAP2 (Homo sapiens, UniProt P50579); assay: Cellular MetAP2 activity (unprocessed initiator methionine of cellular proteins) in HMVEC; type: cell-based
T3 construct: host or cells: HMVEC
T3 sequence (P50579 whole entry): as above
Protocol: Human microvascular endothelial cells (HMVEC) (Clonetics, San Diego, Calif.) were grown in EGM2 recommended medium (Wang et al., J. Cell. Biochem. 77: 465-473, 2000). Cells in T75 flasks at approximately 70% confluence were changed to 15 ml EGLM (labeling medium, Clonetics) without added methionine. Fumagillin (Sigma Catalog No. F-6771) or A310840 (Abbott Laboratories, Abbott Park, Ill.) was added to the culture to final concentrations of 1 nM (fumagillin) or 0.5, 2 and 5 μM (A310840). The cells and inhibitors were incubated for four hours before adding 0.5 mCi/flask of ^35S-methionine (Amersham, Piscataway, N.J.). The cells were allowed further incubation for two hours, washed and lysed in 1 ml M-per (Pierce, Rockford, Ill.) buffer. The lysate samples having the same amount of radioactivity were loaded to a 0.5 ml column of Reactive Blue 72-agarose (Sigma, St. Louis, Mo.) equilibrated with 20 mM Tris/HCl, pH 7.5, 150 mM NaCl. The columns were washed with 30 ml equilibrium buffer, and then incubated with 3 ml of 100 nM MetAP2 in equilibration/washing buffer for 20 minutes at room temperature. The MetAP2 cleaved radioactivity (unprocessed initiator methionine) was then counted.
as §2

[7] = tested on: HMVEC; assay: 3-day HMVEC proliferation assay; type: cell-based, human
Protocol: as §2

Compound: MGKVKVG
Km [1]: 215 µM
kcat [1]: 573.8 min⁻¹

Compound: manganese chloride [Mn^2+]
metal concentration of maximum effect on MetAP2 [2]: 1 µM
concentration that fully stimulated human MetAP2 activity ([2]; in the presence and absence of physiological concentrations of GSH): 1 µM
stimulation of MetAP1 activity ([3]; MAS substrate): about 2 fold
stimulation of MetAP1 activity ([3]; MGAQFSKT substrate): 3 fold

penetration and accumulation into HMVEC cells [4]: able to penetrate and accumulate
inhibition of MetAP2-Mn2+ ([5]; Mn2+ as metal cofactor): did not inhibit
fold less active as inhibitor of MetAP2 with Mn2+ ([5]; Mn2+ form versus baseline, Co2+ and other metal forms): 1000 fold
IC50 ([5]; other metal ions including Zn2+, Fe2+, and Ni2+, read-out: IC50 on MetAP2 with many other metal ions): 10 to 117 nM
IC50 ([5]; without added metals, read-out: IC50 on the baseline activity of MetAP2): 60 nM
inhibition of cellular MetAP2 activity / initiator methionine processing ([6]; HMVEC): did not inhibit
processing of protein initiator methionine in HMVEC ([6]; treatment up to 10 μM): not blocked
Compound: c1ccc2cc(CSc3nnc[nH]3)ccc2c1 [A310840, 3-((2-naphthylmethyl)sulfanyl)-4H-1,2,4-triazole]
inhibition of HMVEC cell proliferation [7]: did not inhibit
